These results are taken from patent US10376465B2, “Monovalent metal cation dry powders for inhalation” (priority 2010, dated 2019).

Molecules are shown by their SMILES. Where two headings read alike, the source gives them in different places.

Data set [1] is described as follows: Solubility of salts and drugs in water / ethanol. Format: physicochemical. From the text:
Spray drying homogenous particles requires that the ingredients of interest be solubilized in solution or suspended in a uniform and stable suspension. Most of the materials mentioned in the material section are sufficiently water-soluble to prepare suitable spray drying solutions. […] As a result of these low solubilities, formulation feedstock development work was necessary to prepare solutions or suspensions that could be spray dried.
For the spray drying process, the salts, excipients and other drugs were dissolved or suspended in a solvent (e.g., water). The solid concentrations (w/v) were chosen dependent on the solubility of the different components (see Table 2). The ratios used for formulations were based on the molecular weight of the anhydrous salts (see Table 3).

The test system of data set [2] is mice sensitized and challenged with ovalbumin (OVA). The note with it: literature (Riesenfeld 2010); cited from earlier work.

With `OCc1cc(C(O)CNCCCCCCOCCCCc2ccccc2)ccc1O` (stereo not shown) [salmeterol xinafoate], in data set [1] (in words), the solubility in ethanol result is reported as “slightly soluble” and the solubility in water result is reported as “practically insoluble”.

On to `CCCC1O[C@@H]2C[C@H]3[C@@H]4CCC5=CC(=O)C=C[C@]5(C)[C@H]4[C@@H](O)C[C@]3(C)[C@]2(C(=O)CO)O1` (stereo partly shown) [Budesonide, budesonide], for which, in data set [1], the solubility in ethanol entry is “slightly soluble” and the solubility in water entry is “practically insoluble”.

In the case of `CCC(=O)O[C@]1(C(=O)SCF)[C@H](C)C[C@H]2[C@@H]3C[C@H](F)C4=CC(=O)C=C[C@]4(C)[C@@]3(F)[C@@H](O)C[C@@]21C` [Fluticasone propionate, fluticasone propionate], in data set [1], the solubility in ethanol result is “slightly soluble” and the solubility in water entry is recorded as “practically insoluble”. The “eosinophilic cells and total cellularity in the mouse OVA model” value in data set [2] was “reduce eosinophilic cells and total cellularity”.
